Test results from patent US20250215039A1, “NUCLEOSIDES FOR TREATING CANCER” (PRIMEFOUR THERAPEUTICS, INC., priority 2022, published 2025).
Read-outs that look alike come from different tables or passages of the source.

Test system: cancer cell lines
Experiment: Cancer cell proliferation activity (CellTiterGlo, 72 h)
Assay type: cell-based
Details: for IC50: 72 h, read-out: IC50
How it was run: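 Cells seeded overnight at 37 °C, then dosed with compound at 0.1% final DMSO and incubated 72 h at 37 °C (5% or 10% CO2 by medium).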

- IC50 (5637 cell line (bladder)): 1.6 nM
- IC50 (CLS439 cell line (bladder)): 3.5 nM
- IC50 (HS729 cell line (muscle)): 3.6 nM
- IC50 (HSS78T cell line): 3.8 nM
- IC50 (JAR cell line (placenta)): 2 nM
- IC50 (SKMELS cell line): 3.2 nM
- IC50 (Homo sapiens, 22Rv1, 72 h, 22RV1 cell line (prostate)): 13 nM
- IC50 (Homo sapiens, 786-0, 72 h, 786O cell line (kidney)): 4.1 nM
- IC50 (Homo sapiens, A204, 72 h, A204 cell line (muscle)): 0.9 nM
- IC50 (Homo sapiens, A549, 72 h, A549 cell line): 3.1 nM
- IC50 (Homo sapiens, A673, 72 h, A673 cell line (bone)): 3.5 nM
- IC50 (Homo sapiens, A2780, 72 h, A2780 cell line (ovary)): 2.4 nM
- IC50 (Homo sapiens, A-375, 72 h, A375 cell line (skin)): 2.3 nM
- IC50 (Homo sapiens, A-431, 72 h, A431 cell line (skin)): 2.3 nM
- IC50 (Homo sapiens, ACHN, ACHN cell line (kidney)): 1.5 nM
- IC50 (Homo sapiens, ASPC1, 72 h, ASPC1 cell line (pancreas)): 5.2 nM
- IC50 (Homo sapiens, BT-20, 72 h, BT20 cell line (breast)): 7 nM
- IC50 (Homo sapiens, BXPC-3, 72 h, BXPC3 cell line (pancreas)): 2.4 nM
- IC50 (Homo sapiens, C-33-A, C33A cell line (cervical)): 4.4 nM
- IC50 (Homo sapiens, CAKI-1, 72 h, CAKI1 cell line (kidney)): 2.7 nM
- IC50 (Homo sapiens, COLO 205, 72 h, COLO205 cell line (colon)): 20.2 nM
- IC50 (Homo sapiens, COLO-678, 72 h, COLO678 cell line (colon)): 5.3 nM
- IC50 (Homo sapiens, Ca-Ski, CASKI cell line (cervical)): 5.9 nM
- IC50 (Homo sapiens, Caco-2, 72 h, CACO2 cell line (colon)): 7 nM
- IC50 (Homo sapiens, Calu-6, 72 h, CALU6 cell line (lung)): 6.1 nM
- IC50 (Homo sapiens, DLD-1, 72 h, DLD1 cell line (colon)): 5.3 nM
- IC50 (Homo sapiens, DU-145, 72 h, DU145 cell line (prostate)): 2.1 nM
- IC50 (Homo sapiens, EFO-21, 72 h, EFO21 cell line (ovary)): 1.9 nM
- IC50 (Homo sapiens, EJ-28, 72 h, EJ28 cell line (bladder)): 2.1 nM
- IC50 (Homo sapiens, Granta-519, 72 h, GRANTA-519 cell line (hematological)): 0.5 nM
- IC50 (Homo sapiens, HCT-15, 72 h, HCT15 cell line (colon)): 4.7 nM
- IC50 (Homo sapiens, HCT-116, 72 h, HCT116 cell line (colon)): 2 nM
- IC50 (Homo sapiens, HEK293, 72 h, HEK293 cell line (kidney)): 20.9 nM
- IC50 (Homo sapiens, HL-60, 72 h, HL-60 cell line (hematological)): 2.2 nM
- IC50 (Homo sapiens, HT-29, 72 h, HT29 cell line (colon)): 3.5 nM
- IC50 (Homo sapiens, HT-1080, 72 h, HT1080 cell line (connective tissue)): 1.7 nM
- IC50 (Homo sapiens, HeLa, HELA cell line (cervical)): 6 nM
- IC50 (Homo sapiens, HepG2, 72 h, HEPG2 cell line (liver)): 2 nM
- IC50 (Homo sapiens, IGROV-1, 72 h, IGROV1 cell line (ovary)): 4.8 nM
- IC50 (Homo sapiens, IMR-90, 72 h, IMR.90 cell line): 2.6 nM
- IC50 (Homo sapiens, J82, 72 h, J82 cell line (bladder)): 5.1 nM
- IC50 (Homo sapiens, JEG-3, 72 h, JEG3 cell line (placenta)): 5.3 nM
- IC50 (Homo sapiens, JIMT-1, 72 h, JIMT1 cell line (breast)): 0.9 nM
- IC50 (Homo sapiens, K562, 72 h, K-562 cell line (hematological)): 14.2 nM
- IC50 (Homo sapiens, Kasumi 1, 72 h, KASUMI-1 cell line (hematological)): 3.5 nM
- IC50 (Homo sapiens, L-363, 72 h, L-363 cell line (hematological)): 3.4 nM
- IC50 (Homo sapiens, LoVo, LOVO cell line (colon)): 2.3 nM
- IC50 (Homo sapiens, MCF7, 72 h, MCF7 cell line (breast)): 4.1 nM
- IC50 (Homo sapiens, MDA-MB-231, 72 h, MDAMB231 cell line (breast)): 0.9 nM
- IC50 (Homo sapiens, MDA-MB-435, 72 h, MDAMB435 cell line (skin)): 2.8 nM
- IC50 (Homo sapiens, MDA-MB-436, 72 h, MDAMB436 cell line (breast)): 1.8 nM
- IC50 (Homo sapiens, MDA-MB-468, 72 h, MDAMB468 cell line (breast)): 1.9 nM
- IC50 (Homo sapiens, MG-63, 72 h, MG63 cell line (bone)): 4.8 nM
- IC50 (Homo sapiens, MHH-ES-1, 72 h, MHHES1 cell line (bone)): 2 nM
- IC50 (Homo sapiens, MIA PaCa-2, 72 h, MIAPACA2 cell line (pancreas)): 6.8 nM
- IC50 (Homo sapiens, MINO, MINO cell line (hematological)): 0.3 nM
- IC50 (Homo sapiens, MV4-11, 72 h, MV4-11 cell line (hematological)): 1.1 nM
- IC50 (Homo sapiens, NCI-H23, 72 h, NCI-H23 cell line (lung)): 1.1 nM
- IC50 (Homo sapiens, NCI-H82, 72 h, NCIH82 cell line (lung)): 7.6 nM
- IC50 (Homo sapiens, NCI-H292, 72 h, NCIH292 cell line (lung)): 4.4 nM
- IC50 (Homo sapiens, NCI-H460, 72 h, NCIH460 cell line (lung)): 5 nM
- IC50 (Homo sapiens, OVCAR-3, 72 h, OVCAR3 cell line (ovary)): 3.1 nM
- IC50 (Homo sapiens, OVCAR-4, 72 h, OVCAR4 cell line (ovary)): 4.9 nM
- IC50 (Homo sapiens, PANC-1, 72 h, PANC1 cell line (pancreas)): 9.7 nM
- IC50 (Homo sapiens, PC-3, 72 h, PC3 cell line (prostate)): 2.6 nM
- IC50 (Homo sapiens, PLC-PRF-5, 72 h, PLCPRF5 cell line (liver)): 9.2 nM
- IC50 (Homo sapiens, Panc1005, 72 h, PANC1005 cell line (pancreas)): 7.9 nM
- IC50 (Homo sapiens, RD, RD cell line (muscle)): 2.3 nM
- IC50 (Homo sapiens, Ramos, RAMOS cell line (hematological)): 0.6 nM
- IC50 (Homo sapiens, SAOS-2, 72 h, SAOS2 cell line (bone)): 0.5 nM
- IC50 (Homo sapiens, SF-268, 72 h, SF268 cell line (brain)): 4.1 nM
- IC50 (Homo sapiens, SF-295, 72 h, SF295 cell line (brain)): 3.3 nM
- IC50 (Homo sapiens, SK-BR-3, 72 h, SKBR3 cell line (breast)): 0.6 nM
- IC50 (Homo sapiens, SK-HEP1, 72 h, SKHEP1 cell line (liver)): 4.7 nM
- IC50 (Homo sapiens, SK-LMS-1, 72 h, SKLMS1 cell line (uterus)): 4.1 nM
- IC50 (Homo sapiens, SK-MEL-28, 72 h, SKMEL28 cell line (skin)): 4.3 nM
- IC50 (Homo sapiens, SK-N-AS, SKNAS cell line (brain)): 3.6 nM
- IC50 (Homo sapiens, SK-N-SH, SKNSH cell line (brain)): 3.3 nM
- IC50 (Homo sapiens, SK-OV-3, 72 h, SKOV3 cell line (ovary)): 23.7 nM
- IC50 (Homo sapiens, SNB-75, 72 h, SNB75 cell line (brain)): 5.3 nM
- IC50 (Homo sapiens, SU-DHL10, 72 h, SU-DHL-10 cell line (hematological)): 4.1 nM
- IC50 (Homo sapiens, SU-DHL-6, 72 h, SU-DHL-6 cell line (hematological)): 6.8 nM
- IC50 (Homo sapiens, SW-620, 72 h, SW620 cell line (colon)): 3 nM
- IC50 (Homo sapiens, T-24, 72 h, T24 cell line (bladder)): 1.4 nM
- IC50 (Homo sapiens, TE-671, 72 h, TE671 cell line (muscle)): 8.3 nM
- IC50 (Homo sapiens, THP-1, 72 h, THP-1 cell line (hematological)): 1.1 nM
- IC50 (Homo sapiens, U2OS, U2OS cell line (bone)): 5.7 nM
- IC50 (Homo sapiens, U-87 MG, U87MG cell line (brain)): 1.5 nM
- IC50 (Homo sapiens, UMUC3, 72 h, UMUC3 cell line (bladder)): 4.3 nM
- IC50 (Homo sapiens, UO-31, 72 h, UO31 cell line (kidney)): 3.7 nM
- IC50 (Homo sapiens, WSU-NHL, WSU-NHL cell line (hematological)): 4.5 nM
- IC50 (MT-3, 72 h, MT3 cell line (breast)): 0.9 nM
- IC50 (NCI-H358M, NCIH358M cell line (lung)): 3.5 nM
- IC50 (PBMC, PBMC (hematological)): 12300 nM
- IC50 (RD-ES, RDES cell line (bone)): 3.7 nM
Structure (SMILES): Nc1ccn([C@@H]2O[C@H](CO)[C@@H](O)C2(F)F)c(=O)n1 [gemcitabine, reference compound]
- cytotoxicity against a panel of cell lines (waterfall plot) (panel of cancer and non-cancer cell lines, figure legends FIG. 1-3): indiscriminately cytotoxic
